Source: patent US8257928B2, “Methods for predicting and treating tumors resistant to drug, immunotherapy and radiation” (The Regents of the University of California, priority 2008, dated 2012)
Entries after “also recorded” stand apart in the source; their conditions may differ.

Experiments:
Format in all cases: cell-based, human
HMT3522 T4-2 cells [1] = assay: Percent cell death in 2D monolayer, 3D rBM and reverted cultures (active caspase 3); conditions: for death sensitivity of cells cultured in 3D rBM: 3D rBM disorganized aggregates vs 2D monolayer; for death sensitivity of cells cultured in 3D rBM / death sensitivity of structurally reverted spheroids: TRAIL 1.0 μg/mL, Paclitaxel 20 μM; for death sensitivity of structurally reverted spheroids: reverted with tyrphostin AG 1478 in 3D rBM
From the text: (§1) The oligonucleotides specifying the small hairpin RNAs (shRNAs) were subcloned from pSilencer-H1 into pLZRS-MFG-CMV-Neo-U6, a recombinant self-inactivating retroviral vector constructed from the backbone of an MFG provirus (Proc. Natl. Acad. Sci. USA 85:6460-6464 (1988); Proc. Natl. Acad. Sci. USA 90:3539-3543 (1993)), which directs the expression of shRNA under the control of the U6 promoter. Amphotropic retrovirus was produced in Phoenix ampho cells (provided by Professor G. Nolan, Stanford Medical Center) with packaging vectors pCgp and pVSVG to boost viral titer. S1 cells or T4-2 cells, maintained in monolayer cultures, were then spin infected with retrovirus carrying the various RNAi constructs and infected cell populations were selected using 300 μg/ml G418 (Invitrogen).
Non-neoplastic HMT3522 S1 breast epithelial cells or neoplastic HMT3522 T4-2 cells were embedded (8.5×10^5/ml) within reconstituted basement membrane (rBM) gel (Matrigcl, BD Biosciences) in chamber slides (Lab-Tek chamber slides, Nunc) according to the procedures described in U.S. Pat. No. 6,123,941 and Nat. Method. 4:359-365 (2007). […] Phenotypic reversion of HMT3522 T4-2 cells in three dimensional rBM cultures was performed using an epidermal growth factor receptor (EGFR) specific tyrosine kinase inhibitor tyrphostin AG 1478 (100 nM) (Calbiochem), as previously described (Proc. Natl. Acad. Sci. USA 95:14821-14826 (1998))
Apoptotic cell death of the breast epithelial cells cultured in three dimensional rBM was initiated by treatment with recombinant, purified human tumor necrosis factor-related apoptosis-inducing ligand (TRAIL) peptides (BIOMOL) or Paclitaxel (Sigma-Aldrich) as described (Cancer Cell 2:205-216 (2002)). DNA damage-induced cell death was initiated by ionizing radiation (IR) using a Mark I Cesium 137 irradiator (JL Shepherd & Associates).
Percent cell death induced by TRAIL or Paclitaxel was quantified using detection of active caspase 3 (Cell Signaling) by indirect immunofluorescence as described (J. Cell Biol. 163:1397-1407 (2003)). Percent cell death induced by IR was quantified using Live/Dead Viability/Cytotoxicity Assay (Molecular Probes). For both methods, cells were counterstained with 4′,6-diamidino-2-phenylindole (DAPI) to label cell nuclei present at different focal planes in the 3D architectures. Percent death was calculated as cells positive for ethidium bromide or active caspase 3 expressed as a percentage of the total number of cells scored by the nuclear staining.
Percent cell death induced by TRAIL was quantified using detection of active caspasc 3 as described in Example 4.

HMT3522 T4-2 cells [2] = assay: Phenotypic reversion in three dimensional rBM cultures; conditions: tyrphostin AG 1478 100 nM
From the text: Non-neoplastic HMT3522 S1 breast epithelial cells or neoplastic HMT3522 T4-2 cells were embedded (8.5×10^5/ml) within reconstituted basement membrane (rBM) gel (Matrigcl, BD Biosciences) in chamber slides (Lab-Tek chamber slides, Nunc) according to the procedures described in U.S. Pat. No. 6,123,941 and Nat. Method. 4:359-365 (2007). The three dimensional cultures were maintained for 12 days before induction of cell death. Phenotypic reversion of HMT3522 T4-2 cells in three dimensional rBM cultures was performed using an epidermal growth factor receptor (EGFR) specific tyrosine kinase inhibitor tyrphostin AG 1478 (100 nM) (Calbiochem), as previously described (Proc. Natl. Acad. Sci. USA 95:14821-14826 (1998))

N-CoR2 = assay: Immunoblot of N-CoR2 protein abundance in 2D, 3D and reverted cultures; conditions: T4-2 aggregates reverted into organized spheroids by EGFR inhibition, vs disorganized 3D aggregates
Description: For immunoblot analysis, cell colonies (S1 acini or T4-2 cellular aggregates) in 3D rBM were isolated using ice-cold PBS/EDTA. Total cell lysates from monolayered cells or isolated colonies were prepared in Laemmli lysing buffer containing protease inhibitors and immunoblot analysis was performed as described (Exp. Cell Res. 298:122-132 (2004)).

HMT3522 S1 cells [3] = assay: Percent cell death of 3D rBM acini (active caspase 3; Live/Dead assay for IR); conditions: stable N-CoR2 downregulation vs control cells, range of drug concentrations or IR doses
From the text: as §1, with “(Invitrogen). […]” for “(Invitrogen).”
Percent cell death induced by TRAIL or Paclitaxel was quantified using detection of active caspase 3 (Cell Signaling) by indirect immunofluorescence as described (J. Cell Biol. 163:1397-1407 (2003)). Percent cell death induced by IR was quantified using Live/Dead Viability/Cytotoxicity Assay (Molecular Probes). […] Percent death was calculated as cells positive for ethidium bromide or active caspase 3 expressed as a percentage of the total number of cells scored by the nuclear staining.

HMT3522 S1 cells [4] = assay: Cell growth rates on culture plastics and 3D acinar morphogenesis in rBM; conditions: stable RNAi vs control shRNA
Description: For the comparison of cell growth rates, cells were seeded on culture plastics and the cell number was determined at indicated time points. Population doublings were calculated as In (cell number at day n/cell number at day 0)/ln 2. Data were shown as mean±SEM of triplicate experiments.
To illustrate the basal surfaces and the intercellular junctions of the polarized acinar structures, the cultures were directly fixed with 2% paraformaldehyde and then incubated with primary antibodies toward β4-integrin and β-catenin, followed by FITC-(green) or Texas red-(red) conjugated secondary antibodies, respectively. Phase contrast images or immunofluorescence images were taken using a scanning confocal laser (model 2000-MP, Bio-Rad Laboratories) attached to a fluorescence microscope (model Eclipse TE-300, Nikon).

CC(=O)O[C@H]1C(=O)[C@@]2(C)[C@H]([C@H](OC(=O)c3ccccc3)[C@]3(O)C[C@H](OC(=O)[C@H](O)[C@@H](NC(=O)c4ccccc4)c4ccccc4)C(C)=C1C3(C)C)[C@]1(OC(C)=O)CO[C@@H]1C[C@@H]2O [Paclitaxel, reference compound]
death sensitivity of cells cultured in 3D rBM (HMT3522 T4-2 cells [1]): decreased sensitivity | death sensitivity of structurally reverted spheroids (HMT3522 T4-2 cells [1]): further decrease in the sensitivity

COc1cc2ncnc(Nc3cccc(Cl)c3)c2cc1OC [tyrphostin AG 1478]
phenotypic reversion of cellular aggregates in 3D rBM (HMT3522 T4-2 cells [2]): phenotypic reversion of the cellular aggregates into organized spheroid-like structures | protein abundance of N-CoR2 (N-CoR2): further increase in the protein abundance of N-CoR2

HDAC3 shRNA: retrovirally expressed small hairpin RNA, siRNA sequence 5′-AAGATGCTGAACCATGCACCT-3′ (SEQ ID NO:2) for HDAC3
sensitivity to the TRAIL treatment of N-CoR2-overexpressed cells (HMT3522 T4-2 cells [1]; HDAC3 simultaneously downregulated by retrovirus-mediated RNAi): restored to an extent comparable to that of vehicle-treated cells

N-CoR2 (K449A): mutant N-CoR2 with lysine 449 mutated to alanine; binds HDAC3 but does not activate it
sensitivity to death induction by TRAIL of cells transduced with the mutant (HMT3522 T4-2 cells [1]; T4-2 cells in rBM gel 5 days, vs vector control cells): hypersensitive to death induction to an extent even greater than that of the vector control cells

N-CoR2 shRNA: retrovirally expressed small hairpin RNA, siRNA sequence 5′-AAGGGTATCATCACCGCTGTG-3′ (SEQ ID NO:1) for N-CoR2
sensitivity of S1 acini to death stimuli (TRAIL, Paclitaxel, IR) (HMT3522 S1 cells [3]): much more sensitive | increased resistance of reverted spheroidal structures to death stimuli (TRAIL, Paclitaxel) (HMT3522 T4-2 cells [1]; stable N-CoR2 downregulation, TRAIL 1.0 μg/mL or Paclitaxel 20 μM): completely reversed | growth on culture plastics, integrity and polarization of acini in 3D rBM (HMT3522 S1 cells [4]): does not significantly alter

B1: TRAIL: recombinant, purified human tumor necrosis factor-related apoptosis-inducing ligand (TRAIL) peptides (BIOMOL) (protein, UniProt P50591 1-281, looked up)
Tumor necrosis factor ligand …: MAMMEVQGGPSLGQTCVLIVIFTVLLQSLCVAVTYVYFTNELKQMQDKYSKSGIACFLKEDDSYWDPNDEESMNSPCWQVKWQLRQLVRKMILRTSEETISTVQEKQQNISPLVRERGPQRVAAHITGTRGRSNTLSSPNSKNEKALGRKINSWESSRSGHSFLSNLHLRNGELVIHEKGFYYIYSQTYFRFQEEIKENTKNDKQMVQYIYKYTSYPDPILLMKSARNSCWSKDAEYGLYSIYQGGIFELKENDRIFVSVTNEHLIDMDHEASFFGAFLVG
death sensitivity of cells cultured in 3D rBM (HMT3522 T4-2 cells [1]): decreased sensitivity | death sensitivity of structurally reverted spheroids (HMT3522 T4-2 cells [1]): further decrease in the sensitivity | death sensitivity of cells with stable overexpression of wild-type N-CoR2 (HMT3522 T4-2 cells [1]; vs vector control cells, 3D rBM): markedly resistant; also recorded: less sensitive
